From US20210290680A1, “METHODS AND COMPOSITIONS FOR MODULATING CELLULAR AGING” (Dorian Therapeutics, Inc., priority 2019, published 2021)

Experiments:
Assay type in all cases: cell-based, human
[1] = tested on: primary T cells; experiment: T cell expansion / proliferation by Trypan Blue cell counts; conditions: day 15 post-activation
Protocol: On Day 0, buffycoats were obtained by a clinical facility, and PBMCs were isolated by density centrifugation using Ficoll™. CD3 enrichment was performed using magnetic beads, PanT cell isolation from Myltenyi Biotec. The T cells were activated with aCD^3/aCD28 Dynabeads (3:1 ratio).
On Day 2, a first round of transduction was performed with lentivirus. On Day 3, a second round of transduction was performed with lentivirus.
On Day 6, the beads were removed. On Day 6-8, Flow cytometry sorting was performed with a FACSAria II (BD).
The cells were cultured in RPMI, 10% FBS, penicillin-streptomycin, and 100IU of IL-2. Cells were plated at a density of 0.3×10^6 cells/ml until day 15, then 0.5×10^6 cells/ml and after day 25 at 1×10^6 cells/ml.
A short hairpin RNA (shRNA) directed against USP16 (shUSP16) was purchased from Dharmacon. […] Between 0.15 and 0.5×10^6 cells were plated post-sorting with a purity higher than 90% and counted every 2-4 days by Trypan Blue exclusion using Vi-CELL XR cell counter (Beckman Coulter). Proliferation was measured as expansion ratio compared to the initial cell seeding. […]
A new set of shRNAs were cloned into the pSIH backbone, where the shRNA expression is driven by the H1 promoter. […] Proliferation was measured as fold increased compared to shControl at day 15 post-activation. […]

[2] = tested on: CHLA-55 cells; experiment: CAR-T in vitro cytotoxicity assay, GD2.CAR T cells; conditions: 1:5 E:T, 72 hours, n=3
Protocol: Primary T cells were activated as described (Example 3), transduced with a lentivirus encoding for either a CD19.CAR or a GD2.CAR co-expressing shUSP16 #1, shUSP16 #2 or a scrambled shRNA (Control). Cells were cultured in IL-2 and sorted between days 6-13 for EGFRt. At day 16 cytotoxicity assays were performed. Briefly, cells were counted and 100,000 T cells (adjusted for EGFR expression) were plated at 1:5 Effector:Target (E:T) ratio. At 72 hours, the mixture of tumor cells and T cells were collected, stained for CD3-PE, CD8-BV510, CD19- or GD2-APC, EGFR-AF488 and Sytox and counted by flow cytometry (MACSQuant, Miltenyi Biotec) (FIGS. 30A and 30B). Counting beads (CountBright Absolute Counting beads, Invitrogen) were added before acquisition and absolute number was calculated as following (number of cell events/number of bead events)×(assigned bead count of the lot (beads/50 ul)/volume of sample (ul))=concentration of sample as cells/ul). NALM cells were used as target cells for CD19.CAR T cells and CHLA-55 cells were used as target for GD2.CAR T cells. Three different primary T cell cultures were tested for CD19 and GD2 CAR.

[3] = tested on: Axin-2; experiment: qPCR of WNT pathway gene Axin-2; conditions: day 15, n=4; for Axin-2 expression, fold change vs Control: CD19.CAR
From the text: (§1) Primary T cells were activated as described (Example 3), transduced with a lentivirus encoding for either a CD19.CAR or a GD2.CAR co-expressing shUSP16 #1, shUSP16 #2 or a scrambled shRNA (Control). Fifteen days post-activation, T cells were collected and qPCR performed. TaqMan probes detecting CDKN1A, CDKN2A (FIGS. 26A and 26B) (fold change GD2.CAR (n=4): CDKN1A Control vs shUSP #1: 0.4360, p<0.0001, and Control vs shUSP16 #2: 3.036, p=0.004 respectively. Fold change CD19.CAR (n=4): CDKN2a, CDKN1A Control vs shUSP #1: 0.6906, p=0.0026; 0.7228, p=0.0297 and Control vs shUSP16 #2: 0.8385, p=0.2325; 0.7017, p=0.0021), TCF7, LEF1, and Axin-2 (FIGS. 27A and B) were analyzed in GD2.CAR and CD19.CAR-expressing cells, respectively. ACTB was used as internal control. (GD2.CAR (n=4) TCF7, LEF1 and Axin-2: Control vs shUSP #1: 1.914 p=0.0512; 1.795 p=0.0323; 3.269 p=0.15 and Control vs shUSP16 #2: 1.284 p=0.0494; 1.718 p=0.0586; 2.035p=0.235, respectively. Fold change CD19.CAR (n=4): TCF7, LEF1 and Axin-2: Control vs shUSP #1: 1.528, p=0.0277; 1.82, p=0.0449; 1.998, p=0.031 and Control vs shUSP16 #2: 1.18, p=0.2002; 1.579, p=0.0632; 1.261, p=0.2382). USP16 downregulation in CAR-T cells results in a decreased expression of senescence markers and an increase in the expression of genes associated with the activation/increased signaling of the WNT pathway, indicating its importance in delaying cellular senescence and increasing self-renewal.

[4] = tested on: CDKN1A; experiment: qPCR of senescence marker CDKN1A; conditions: for CDKN1A expression, fold change vs Control: day 15, n=4; for decrease of senescence marker CDKN1A (Ctrl vs shRNA): primary T cells, day 15
From the text: A new set of shRNAs were cloned into the pSIH backbone, where the shRNA expression is driven by the H1 promoter. The vector was also engineered to co-express GFP and Puromycin resistance through a T2A sequence. The new shRNA sequences were: shUSP16 #1 5′-[…]-3′ (SEQ ID NO: 8) and shUSP16 #2 5′-[…]-3′ (SEQ ID NO: 9). Primary T cells were activated as described (Example 3), transduced with a lentivirus encoding either a shUSP16 #1, shUSP16 #2 or a scrambled shRNA (Control) and cells were selected with puromycin at day 6. Between 1 and 1.25×10^6 cells were plated post-puromycin selection with a purity higher than 90% and counted every 2-4 days by Trypan Blue exclusion using Vi-CELL XR cell counter (Beckman Coulter). qPCR was performed to verify downregulation of USP16 expression (FIG. 14A) and the expression of the senescent marker CDKN1A (FIG. 14B) at day 15. Proliferation was measured as fold increased compared to shControl at day 15 post-activation. The experiment was repeated using primary T cells obtained from buffy coats of 3 different healthy donors.
as §1

| Substance | proliferation, fold increased compared to shControl [1] | CHLA-55 residual cells [2] | T cell number [2] | Axin-2 expression, fold change vs Control [3] | CDKN1A expression, fold change vs Control ([4]; CD19.CAR) | CDKN1A expression, fold change vs Control ([4]; GD2.CAR) | decrease of senescence marker CDKN1A (Ctrl vs shRNA) [4] [%] | Axin-2 expression vs Control ([3]; GD2.CAR) |
| --- | --- | --- | --- | --- | --- | --- | --- | --- |
| shUSP16 #2: shRNA targeting USP16, 5′-TATATCAGTTCACCCGTAAT-3′ (SEQ ID NO: 9), pSIH backbone or co-expressed in CAR plasmid | ~2.33 folds | 129186 | 194025 | 1.261 | 0.7017 | 3.036 | 37 | – |
| shUSP16 #1: shRNA targeting USP16, 5′-GACTGTAAGACTGACAATAAA-3′ (SEQ ID NO: 8), pSIH backbone or co-expressed in CAR plasmid | about 1.31 folds | 159531 | 79566 | 1.998 | 0.7228 | 0.4360 | 23 | 3.269 |
